According to US20250282746A1, “HALOGEN-SUBSTITUTED ISOINDOLINE COMPOUND AND USE THEREOF” (CHENGDU FENDI PHARMACEUTICAL CO., LTD., priority 2022, published 2025):

Key:
[1] = test system: MV-4-11 cells; assay: Antiproliferative activity against MV-4-11 cells (CellTiter-Glo, 72 h); format: cell-based; conditions: Homo sapiens, MV4-11; MV-4-11 cells, 72 h; read-out: Antiproliferative activity IC50
Description: MV411 cells in the logarithmic growth phase were diluted in a medium (RPMI+10% FBS) and plated at 5,000 cells/well in 96-well whole black plates (WHB) with 50 μL/well. After plating, the plates were incubated in an incubator at 5% CO2 and 37° C. for 24 h before the compounds were added. The compounds were prepared into a 10 mM stock solution in DMSO and diluted in a culture medium to the desired concentrations (a final DMSO concentration of 0.2%). […] The plates were incubated at 5% CO2 and 37° C. for 72 h. After the incubation was complete, the plates were equilibrated at room temperature for 30 min. CellTiter-Glo® Reagent (Promega G7573) was added at 100 μL/well. The plates were shaken for 12 min on a microplate shaker. The luminescence value was measured at room temperature by the GloMax navigator (Promega GM2010).

[2] = target: T1, GSPT1 protein (Homo sapiens, UniProt P15170); assay: Degradation of GSPT1 protein in NB-4 cells (Western blot); format: cell-based; conditions: NB-4 cells, compound 1 μM, 6 h; read-out: GSPT1 degradation
T1 construct: The whole cell lysate was prepared using a RIPA lysis buffer; endogenous in cells; host or cells: NB-4 cells
T1 sequence (P15170 whole entry): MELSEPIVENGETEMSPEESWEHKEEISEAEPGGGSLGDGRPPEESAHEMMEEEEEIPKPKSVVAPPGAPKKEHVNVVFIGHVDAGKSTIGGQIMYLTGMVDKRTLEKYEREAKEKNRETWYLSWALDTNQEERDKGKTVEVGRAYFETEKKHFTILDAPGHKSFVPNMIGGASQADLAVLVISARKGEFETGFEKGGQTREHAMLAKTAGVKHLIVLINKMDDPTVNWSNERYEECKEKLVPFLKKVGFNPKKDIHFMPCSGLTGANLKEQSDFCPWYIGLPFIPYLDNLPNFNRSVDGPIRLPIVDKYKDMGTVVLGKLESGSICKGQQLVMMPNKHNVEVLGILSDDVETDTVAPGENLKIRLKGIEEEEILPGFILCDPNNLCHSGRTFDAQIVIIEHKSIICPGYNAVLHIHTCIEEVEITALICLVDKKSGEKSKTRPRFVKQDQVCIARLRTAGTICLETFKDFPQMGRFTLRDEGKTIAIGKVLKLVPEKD
Description: 150 μL of DMSO and the compounds (1 μM) were added, and the mixture was incubated in an incubator at 5% CO2 and 37° C. for 6 h. The cells were centrifuged, and the culture medium was discarded. PBS was added for washing and then discarded. The whole cell lysate was prepared using a RIPA lysis buffer containing a protease inhibitor cocktail and a phosphatase inhibitor, and incubated on ice for 30 min. The mixture was centrifuged, and the cell debris was discarded. The whole cell lysate supernatant was collected and transferred to a fresh EP tube. Samples were prepared using a loading buffer after a BCA protein assay. The samples were incubated in a metal bath at 100° C. for 10 min.
The samples were electrophoretically separated from proteins on a 4-20% precast gel (SDS-PAGE gel), transferred to a PVDF membrane, blocked with 5% NFDM/TBST for 1 h at room temperature, co-incubated overnight at 4° C. with the primary antibody, and co-incubated for 2 h at room temperature with the secondary antibody on the next day. The signals were detected on the […]™ imaging system.

SMILES | IC50 [1] | inhibition at 1 µM [2]
O=C1CCC(N2Cc3c(ccc(CNC(=O)c4cc5ccccc5o4)c3F)C2=O)C(=O)N1 (centres unmarked) [FDAB-45] | 1 to 10 nM | > 80%
O=C1CCC(N2Cc3c(ccc(CNC(=O)c4cc5cc(Cl)ccc5o4)c3F)C2=O)C(=O)N1 (centres unmarked) [FDAB-47] | 1 to 10 nM | > 80%
O=C1CCC(N2Cc3c(ccc(CNC(=O)c4ccc(F)cc4)c3F)C2=O)C(=O)N1 (centres unmarked) [FDAB-49] | > 1000 nM | < 25%
O=C1CCC(N2Cc3c(ccc(CNC(=O)c4ccc(Cl)cc4Cl)c3F)C2=O)C(=O)N1 (centres unmarked) [FDAB-50] | 1 to 10 nM | > 80%
Cc1ccc(C(=O)NCc2cc3c(cc2F)C(=O)N(C2CCC(=O)NC2=O)C3)cc1 (centres unmarked) [FDAB-51] | 10 to 100 nM | > 80%
O=C1CCC(N2Cc3cc(CNC(=O)c4ccc(C(F)(F)F)cc4)c(F)cc3C2=O)C(=O)N1 (centres unmarked) [FDAB-52] | 1 to 10 nM | > 80%
O=C1CCC(N2Cc3cc(CNC(=O)c4ccc(Cl)c(F)c4)c(F)cc3C2=O)C(=O)N1 (centres unmarked) [FDAB-53] | 10 to 100 nM | > 80%
N#Cc1cc(C(=O)NCc2cc3c(cc2F)C(=O)N(C2CCC(=O)NC2=O)C3)ccc1Cl (centres unmarked) [FDAB-54] | 10 to 100 nM | 50 to 80%
O=C1CCC(N2Cc3cc(CNC(=O)c4ccc(Cl)c(O)c4)c(F)cc3C2=O)C(=O)N1 (centres unmarked) [FDAB-55] | 1 to 10 nM | > 80%
O=C1CCC(N2Cc3cc(CNC(=O)c4ccc(Cl)cn4)c(F)cc3C2=O)C(=O)N1 (centres unmarked) [FDAB-56] | > 1000 nM | < 25%
Cc1nc2cc(C(=O)NCc3cc4c(cc3F)C(=O)N(C3CCC(=O)NC3=O)C4)ccc2s1 (centres unmarked) [FDAB-58] | 10 to 100 nM | > 80%
Cn1ccc2ccc(C(=O)NCc3cc4c(cc3F)C(=O)N(C3CCC(=O)NC3=O)C4)cc21 (centres unmarked) [FDAB-59] | > 1000 nM | > 80%
O=C1CCC(N2Cc3cc(CNC(=O)c4ccc5ccccc5n4)c(F)cc3C2=O)C(=O)N1 (centres unmarked) [FDAB-60] | 10 to 100 nM | > 80%
O=C1CCC(N2Cc3c(ccc(CNC(=O)c4ccc(C(F)(F)F)cc4)c3F)C2=O)C(=O)N1 (centres unmarked) [FDAB-61] | 1 to 10 nM | > 80%
O=C1CCC(N2Cc3c(ccc(CNC(=O)c4ccc(Cl)cn4)c3F)C2=O)C(=O)N1 (centres unmarked) [FDAB-62] | > 1000 nM | < 25%
CCC#CC(=O)NCc1cc2c(cc1F)C(=O)N(C1CCC(=O)NC1=O)C2 (centres unmarked) [FDAB-63] | > 1000 nM | < 25%
O=C(C#CC1CC1)NCc1cc2c(cc1F)C(=O)N(C1CCC(=O)NC1=O)C2 (centres unmarked) [FDAB-64] | 100 to 1000 nM | 50 to 80%
O=C1CCC(N2Cc3c(ccc(CNC(=O)c4ccc5ccccc5n4)c3F)C2=O)C(=O)N1 (centres unmarked) [FDAB-66] | 10 to 100 nM | > 80%
O=C1CCC(N2Cc3c(ccc(CNC(=O)c4cc5ccccc5o4)c3Cl)C2=O)C(=O)N1 (centres unmarked) [FDAB-67] | 1 to 10 nM | > 80%
O=C1CCC(N2Cc3c(ccc(CNC(=O)c4cc5cc(F)ccc5o4)c3Cl)C2=O)C(=O)N1 (centres unmarked) [FDAB-69] | 1 to 10 nM | 50 to 80%
O=C1CCC(N2Cc3c(ccc(CNC(=O)c4ccc(Cl)cc4)c3Cl)C2=O)C(=O)N1 (centres unmarked) [FDAB-70] | 100 to 1000 nM | 25 to 50%
O=C1CCC(N2Cc3cc(CNC(=O)c4cc5ccccc5o4)c(Cl)cc3C2=O)C(=O)N1 (centres unmarked) [FDAB-71] | > 1000 nM | < 25%
O=C1CCC(N2Cc3cc(CNC(=O)c4cc5cc(Cl)ccc5o4)c(Cl)cc3C2=O)C(=O)N1 (centres unmarked) [FDAB-72] | > 1000 nM | < 25%
O=C1CCC(N2Cc3cc(CNC(=O)c4cc5cc(F)ccc5o4)c(Cl)cc3C2=O)C(=O)N1 (centres unmarked) [FDAB-73] | > 1000 nM | < 25%
O=C1CCC(N2Cc3cc(CNC(=O)c4ccc(Cl)cc4)c(Cl)cc3C2=O)C(=O)N1 (centres unmarked) [FDAB-74] | > 1000 nM | < 25%
O=C1CCC(N2Cc3c(ccc(CNC(=O)c4cc5ccccc5[nH]4)c3Cl)C2=O)C(=O)N1 (centres unmarked) [FDAB-75] | 1 to 10 nM | 50 to 80%
Cc1ccc(C(=O)NCc2ccc3c(c2Cl)CN(C2CCC(=O)NC2=O)C3=O)cc1 (centres unmarked) [FDAB-76] | > 1000 nM | < 25%
O=C1CCC(N2Cc3c(ccc(CNC(=O)c4ccc(F)cc4)c3Cl)C2=O)C(=O)N1 (centres unmarked) [FDAB-77] | > 1000 nM | < 25%
